From ChEMBL document CHEMBL5042519, “Design and synthesis of marine sesterterpene analogues as novel estrogen receptor α degraders for breast cancer treatment” (Eur J Med Chem, 2022)
Counter-ions that a name gives are not always drawn. Activity calls are given as the source filed them. The rule behind the calls is not given here.

Assays:
[1] = Antiproliferative activity against human MCF-10A cells assessed as reduction in cell viability after 48 hrs by MTT assay; assay type: toxicity, cell-based
MDA-MB-231 = experiment: Antiproliferative activity against human MDA-MB-231 cells assessed as reduction in cell viability after 48 hrs by MTT assay; settings: MDA-MB-231, 48 h
MCF7 [2] = experiment: Antiproliferative activity against human MCF7 cells assessed as reduction in cell viability after 48 hrs by MTT assay; assay type: functional, cell-based; settings: MCF7, 48 h
[3] = Selectivity index, ratio of IC50 for antiproliferative activity against human MCF-10A cells to IC50 for antiproliferative activity against human MDA-MB-231 cells by MTT assay; assay type: toxicity, cell-based; settings: MCF-10A cells versus MDA-MB-231 cells, read-out: Ratio IC50
MCF7 [4] = experiment: Antiproliferative activity against human MCF7/ADR cells assessed as reduction in cell viability after 48 hrs by MTT assay; assay type: functional, cell-based; settings: MCF7, 48 h
[5] = Resistance index, ratio of IC50 for antiproliferative activity against human MCF7/ADR cells to IC50 for antiproliferative activity against human MCF7 cells; assay type: functional
[6] = target: T1, Estrogen receptor (Homo sapiens) (UniProt P03372); experiment: Induction of ERalpha degradation in human MCF7 cells assessed as decrease in ERalpha protein expression at 1 uM incubated for 24 hrs by Western blot analysis; assay type: cell-based
T1 sequence (whole entry): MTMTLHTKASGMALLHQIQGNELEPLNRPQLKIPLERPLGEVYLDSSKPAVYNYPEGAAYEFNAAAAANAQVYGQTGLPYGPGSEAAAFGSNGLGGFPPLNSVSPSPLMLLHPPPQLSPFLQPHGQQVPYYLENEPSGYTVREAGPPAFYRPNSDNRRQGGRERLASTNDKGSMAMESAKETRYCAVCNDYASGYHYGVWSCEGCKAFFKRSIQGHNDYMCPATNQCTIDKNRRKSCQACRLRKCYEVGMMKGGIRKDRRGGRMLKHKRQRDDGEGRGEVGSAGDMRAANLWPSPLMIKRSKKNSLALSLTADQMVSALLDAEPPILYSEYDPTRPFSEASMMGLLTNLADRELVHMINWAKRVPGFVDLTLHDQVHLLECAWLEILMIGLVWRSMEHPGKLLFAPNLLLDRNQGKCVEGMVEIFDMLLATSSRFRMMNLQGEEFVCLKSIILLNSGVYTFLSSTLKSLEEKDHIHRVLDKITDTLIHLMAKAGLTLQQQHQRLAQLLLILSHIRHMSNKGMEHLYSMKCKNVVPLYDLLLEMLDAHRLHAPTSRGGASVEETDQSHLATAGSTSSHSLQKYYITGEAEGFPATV

| IC50 (MDA-MB-231) [nM] | IC50 (MCF7 [2]) [nM] | IC50 (MCF7 [4]) [nM] | Activity [6] | Compound | IC50 at 48 h [1] [nM] | selectivity ratio [3] | Ratio IC50 [5] |
| --- | --- | --- | --- | --- | --- | --- | --- |
| 300 | 1660 | 1030 |  | CCCCCCCCCCOC(=O)/C=C/[C@H](C)[C@H]1CC[C@]2(C)C[C@@H]3C(C)=CC(=O)[C@H]3/C(C=O)=C\C[C@@H]12 | 2160 | 1.3 | 0.62 |
| 420 | 1420 | 520 |  | CCCCCCCCOC(=O)/C=C/[C@H](C)[C@H]1CC[C@]2(C)C[C@@H]3C(C)=CC(=O)[C@H]3/C(C=O)=C\C[C@@H]12 | 1570 | 1.11 | 0.37 |
| 860 | 1840 | 1630 |  | CCCCCCOC(=O)/C=C/[C@H](C)[C@H]1CC[C@]2(C)C[C@@H]3C(C)=CC(=O)[C@H]3/C(C=O)=C\C[C@@H]12 |  |  | 0.89 |
| 3160 | 3790 | 2260 |  | COCCOCCOCCOC(=O)/C=C/[C@H](C)[C@H]1CC[C@]2(C)C[C@@H]3C(C)=CC(=O)[C@H]3/C(C=O)=C\C[C@@H]12 |  |  | 0.6 |
| 730 | 1040 | 1150 | Active | CC1=CC(=O)[C@H]2/C(C=O)=C\C[C@H]3[C@@H]([C@@H](C)/C=C/C(=O)OCCOCCOCCOC(=O)CC45CC6CC(CC(C6)C4)C5)CC[C@]3(C)C[C@H]12 |  |  | 1.11 |
| 1080 | 1080 | 1040 | Active | CC1=CC(=O)[C@H]2/C(C=O)=C\C[C@H]3[C@@H]([C@@H](C)/C=C\C=C/C(=O)OC45CC6CC(CC(C6)C4)C5)CC[C@]3(C)C[C@H]12 |  |  | 0.96 |
| 1370 | 1450 | 1860 |  | CCCCOC(=O)/C=C\C=C/[C@H](C)[C@H]1CC[C@]2(C)C[C@@H]3C(C)=CC(=O)[C@H]3/C(C=O)=C\C[C@@H]12 |  |  | 1.28 |
| 910 | 1850 | 1260 |  | CCCCCCCCCCOC(=O)/C=C\C=C/[C@H](C)[C@H]1CC[C@]2(C)C[C@@H]3C(C)=CC(=O)[C@H]3/C(C=O)=C\C[C@@H]12 |  |  | 0.68 |
| 690 | 1380 | 940 | Active | CCCCCCCOC(=O)/C=C\C=C/[C@H](C)[C@H]1CC[C@]2(C)C[C@@H]3C(C)=CC(=O)[C@H]3/C(C=O)=C\C[C@@H]12 |  |  | 0.68 |
|  |  |  |  | COc1cccc2c1C(=O)c1c(O)c3c(c(O)c1C2=O)C[C@@](O)(C(=O)CO)C[C@@H]3O[C@H]1C[C@H](N)[C@H](O)[C@H](C)O1 [DOXORUBICIN HYDROCHLORIDE] | 860 |  |  |
| 950 | 590 | 610 | Active | CC1=CC(=O)[C@H]2/C(C=O)=C\C[C@H]3[C@@H]([C@@H](C)/C=C/C(=O)OC45CC6CC(CC(C6)C4)C5)CC[C@]3(C)C[C@H]12 |  |  | 1.03 |
| 970 | 2190 | 1280 |  | CCCCCCCOC(=O)/C=C/[C@H](C)[C@H]1CC[C@]2(C)C[C@@H]3C(C)=CC(=O)[C@H]3/C(C=O)=C\C[C@@H]12 |  |  | 0.58 |
| 2320 | 4850 | 3260 |  | COCCOCCOCCOC(=O)/C=C\C=C/[C@H](C)[C@H]1CC[C@]2(C)C[C@@H]3C(C)=CC(=O)[C@H]3/C(C=O)=C\C[C@@H]12 |  |  | 0.67 |
| 440 | 1450 | 960 |  | CC1=CC(=O)[C@H]2/C(C=O)=C\C[C@H]3[C@@H]([C@@H](C)/C=C\C=C/C(=O)OCCCOC(=O)CC45CC6CC(CC(C6)C4)C5)CC[C@]3(C)C[C@H]12 |  |  | 0.66 |
| 520 | 1780 | 980 |  | CCCCCCCCOC(=O)/C=C\C=C/[C@H](C)[C@H]1CC[C@]2(C)C[C@@H]3C(C)=CC(=O)[C@H]3/C(C=O)=C\C[C@@H]12 |  |  | 0.55 |
| 2410 | 2950 | 1980 |  | CCCCCOC(=O)/C=C/[C@H](C)[C@H]1CC[C@]2(C)C[C@@H]3C(C)=CC(=O)[C@H]3/C(C=O)=C\C[C@@H]12 |  |  | 0.67 |
| 1470 | 2250 | 1690 |  | CCCCOC(=O)/C=C/[C@H](C)[C@H]1CC[C@]2(C)C[C@@H]3C(C)=CC(=O)[C@H]3/C(C=O)=C\C[C@@H]12 |  |  | 0.75 |
| 770 | 1040 | 1110 |  | CC1=CC(=O)[C@H]2/C(C=O)=C\C[C@H]3[C@@H]([C@@H](C)/C=C/C(=O)OCCOCCOC(=O)CC45CC6CC(CC(C6)C4)C5)CC[C@]3(C)C[C@H]12 |  |  | 1.07 |
| 1010 | 1260 | 2030 | Active | CC1=CC(=O)[C@H]2/C(C=O)=C\C[C@H]3[C@@H]([C@@H](C)/C=C\C=C/C(=O)OCCOCCOCCOCCOC(=O)CC45CC6CC(CC(C6)C4)C5)CC[C@]3(C)C[C@H]12 |  |  | 1.61 |
| 750 | 2870 | 1910 |  | CC1=CC(=O)[C@H]2/C(C=O)=C\C[C@H]3[C@@H]([C@@H](C)/C=C/C(=O)OCCCCCCCCOC(=O)CC45CC6CC(CC(C6)C4)C5)CC[C@]3(C)C[C@H]12 |  |  | 0.67 |
| 290 | 1820 | 700 |  | CC1=CC(=O)[C@H]2/C(C=O)=C\C[C@H]3[C@@H]([C@@H](C)/C=C/C(=O)OCCCOC(=O)CC45CC6CC(CC(C6)C4)C5)CC[C@]3(C)C[C@H]12 |  |  | 0.38 |
| 930 | 960 | 860 | Active | CC1=CC(=O)[C@H]2/C(C=O)=C\C[C@H]3[C@@H]([C@@H](C)/C=C/C(=O)OCCOCCOCCOCCOC(=O)CC45CC6CC(CC(C6)C4)C5)CC[C@]3(C)C[C@H]12 |  |  | 0.9 |
| 570 | 1810 | 730 |  | CCCCCCCCCOC(=O)/C=C/[C@H](C)[C@H]1CC[C@]2(C)C[C@@H]3C(C)=CC(=O)[C@H]3/C(C=O)=C\C[C@@H]12 |  |  | 0.4 |
| 1660 | 1840 | 1370 |  | CCCCCOC(=O)/C=C\C=C/[C@H](C)[C@H]1CC[C@]2(C)C[C@@H]3C(C)=CC(=O)[C@H]3/C(C=O)=C\C[C@@H]12 |  |  | 0.74 |
| 690 | 1760 | 1490 |  | CC1=CC(=O)[C@H]2/C(C=O)=C\C[C@H]3[C@@H]([C@@H](C)/C=C\C=C/C(=O)OCCCCCCCCOC(=O)CC45CC6CC(CC(C6)C4)C5)CC[C@]3(C)C[C@H]12 |  |  | 0.85 |

| Compound | IC50 (MDA-MB-231) [nM] | IC50 (MCF7 [2]) [nM] | IC50 (MCF7 [4]) [nM] | Activity [6] | IC50 at 48 h [1] [nM] | selectivity ratio [3] | Ratio IC50 [5] |
| --- | --- | --- | --- | --- | --- | --- | --- |
| CC1=CC(=O)[C@H]2/C(C=O)=C\C[C@H]3[C@@H]([C@@H](C)/C=C\C=C/C(=O)OCCOCCOOC(=O)CC45CC6CC(CC(C6)C4)C5)CC[C@]3(C)C[C@H]12 | > 10000 | > 10000 | > 10000 |  |  |  |  |
